ChEMBL document CHEMBL4376820, “Homodimeric Tobramycin Adjuvant Repurposes Novobiocin as an Effective Antibacterial Agent against Gram-Negative Bacteria” (J Med Chem, 2019)
Calls of active or inactive are those of the source.

How the values were obtained:
[1] = tested on: Pseudomonas aeruginosa; test: Synergistic antibacterial activity against wild type Pseudomonas aeruginosa PAO1 assessed as potentiation of vancomycin-induced antibacterial effect at <=7.1 uM incubated for 18 hrs by checkerboard assay; assay type: functional, organism-based
[2] = tested on: Pseudomonas aeruginosa; test: Synergistic antibacterial activity against wild type Pseudomonas aeruginosa PAO1 assessed as potentiation of moxifloxacin-induced antibacterial effect incubated for 18 hrs by checkerboard assay; assay type: functional, organism-based
[3] = tested on: Pseudomonas aeruginosa; test: Synergistic antibacterial activity against wild type Pseudomonas aeruginosa PAO1 assessed as potentiation of aztreonam-induced antibacterial effect incubated for 18 hrs by checkerboard assay; assay type: functional, organism-based
[4] = tested on: Pseudomonas aeruginosa; test: Synergistic antibacterial activity against wild type Pseudomonas aeruginosa PAO1 assessed as potentiation of levofloxacin-induced antibacterial effect incubated for 18 hrs by checkerboard assay; assay type: functional, organism-based
[5] = tested on: Pseudomonas aeruginosa; test: Synergistic antibacterial activity against wild type Pseudomonas aeruginosa PAO1 assessed as potentiation of minocycline-induced antibacterial effect incubated for 18 hrs by checkerboard assay; assay type: functional, organism-based
[6] = tested on: Pseudomonas aeruginosa; test: Synergistic antibacterial activity against wild type Pseudomonas aeruginosa PAO1 assessed as potentiation of fosfomycin-induced antibacterial effect incubated for 18 hrs by checkerboard assay; assay type: functional, organism-based
[7] = tested on: Pseudomonas aeruginosa; test: Synergistic antibacterial activity against wild type Pseudomonas aeruginosa PAO1 assessed as potentiation of ciprofloxacin-induced antibacterial effect incubated for 18 hrs by checkerboard assay; assay type: functional, organism-based
[8] = tested on: HepG2; test: Cytotoxicity against human HepG2 cells at 50 uM incubated for 48 hrs by PrestoBlue dye based fluorescence assay; assay type: cell-based; conditions: hepg2, 48 h
[9] = tested on: Pseudomonas aeruginosa; test: Antibacterial activity against wild type Pseudomonas aeruginosa PAO1 assessed as fractional inhibitory concentration index incubated for 18 hrs in presence of tobramycin by checkerboard assay; assay type: functional
[10] = tested on: Pseudomonas aeruginosa; test: Synergistic antibacterial activity against wild type Pseudomonas aeruginosa PAO1 assessed as potentiation of chloramphenicol-induced antibacterial effect incubated for 18 hrs by checkerboard assay; assay type: functional, organism-based
[11] = tested on: Pseudomonas aeruginosa; test: Synergistic antibacterial activity against wild type Pseudomonas aeruginosa PAO1 assessed as potentiation of levofloxacin-induced antibacterial effect incubated for 18 hrs by checkerboard assay relative to levofloxacin alone; assay type: functional
[12] = tested on: Pseudomonas aeruginosa; test: Synergistic antibacterial activity against wild type Pseudomonas aeruginosa PAO1 assessed as potentiation of doxycycline-induced antibacterial effect incubated for 18 hrs by checkerboard assay; assay type: functional, organism-based
[13] = tested on: Pseudomonas aeruginosa; test: Synergistic antibacterial activity against wild type Pseudomonas aeruginosa PAO1 assessed as potentiation of cefotaxime-induced antibacterial effect incubated for 18 hrs by checkerboard assay; assay type: functional, organism-based
[14] = tested on: Pseudomonas aeruginosa; test: Synergistic antibacterial activity against wild type Pseudomonas aeruginosa PAO1 assessed as potentiation of piperacillin-induced antibacterial effect incubated for 18 hrs by checkerboard assay relative to piperacillin alone; assay type: functional
[15] = tested on: Pseudomonas aeruginosa; test: Synergistic antibacterial activity against wild type Pseudomonas aeruginosa PAO1 assessed as potentiation of fosfomycin-induced antibacterial effect incubated for 18 hrs by checkerboard assay relative to fosfomycin alone; assay type: functional
[16] = tested on: Pseudomonas aeruginosa; test: Synergistic antibacterial activity against wild type Pseudomonas aeruginosa PAO1 assessed as potentiation of cefotaxime-induced antibacterial effect incubated for 18 hrs by checkerboard assay relative to cefotaxime alone; assay type: functional
[17] = tested on: Pseudomonas aeruginosa; test: Synergistic antibacterial activity against wild type Pseudomonas aeruginosa PAO1 assessed as potentiation of piperacillin-induced antibacterial effect incubated for 18 hrs by checkerboard assay; assay type: functional, organism-based
[18] = tested on: Pseudomonas aeruginosa; test: Synergistic antibacterial activity against wild type Pseudomonas aeruginosa PAO1 assessed as potentiation of novobiocin-induced antibacterial effect incubated for 18 hrs by checkerboard assay; assay type: functional, organism-based
[19] = tested on: Pseudomonas aeruginosa; test: Synergistic antibacterial activity against wild type Pseudomonas aeruginosa PAO1 assessed as potentiation of novobiocin-induced antibacterial effect incubated for 18 hrs by checkerboard assay relative to novobiocin alone; assay type: functional
[20] = tested on: Pseudomonas aeruginosa; test: Synergistic antibacterial activity against wild type Pseudomonas aeruginosa PAO1 assessed as potentiation of ciprofloxacin-induced antibacterial effect incubated for 18 hrs by checkerboard assay relative to ciprofloxacin alone; assay type: functional
[21] = tested on: Pseudomonas aeruginosa; test: Synergistic antibacterial activity against wild type Pseudomonas aeruginosa PAO1 assessed as potentiation of meropenem-induced antibacterial effect incubated for 18 hrs by checkerboard assay relative to meropenem alone; assay type: functional
[22] = tested on: Pseudomonas aeruginosa; test: Synergistic antibacterial activity against wild type Pseudomonas aeruginosa PAO1 assessed as potentiation of aztreonam-induced antibacterial effect incubated for 18 hrs by checkerboard assay relative to aztreonam alone; assay type: functional
[23] = tested on: Pseudomonas aeruginosa; test: Synergistic antibacterial activity against wild type Pseudomonas aeruginosa PAO1 assessed as potentiation of tobramycin-induced antibacterial effect at <= 7.1 uM incubated for 18 hrs by checkerboard assay; assay type: functional, organism-based
[24] = tested on: Pseudomonas aeruginosa; test: Synergistic antibacterial activity against wild type Pseudomonas aeruginosa PAO1 assessed as potentiation of minocycline-induced antibacterial effect incubated for 18 hrs by checkerboard assay relative to minocycline alone; assay type: functional
[25] = tested on: Erythrocyte; test: Hemolytic activity against porcine erythrocytes assessed as hemoglobin release at 1024 ug/ml incubated for 1 hr by microplate reader analysis; assay type: ADME, cell-based, Sus scrofa; conditions: pig
[26] = tested on: Pseudomonas aeruginosa; test: Synergistic antibacterial activity against wild type Pseudomonas aeruginosa PAO1 assessed as potentiation of clindamycin-induced antibacterial effect incubated for 18 hrs by checkerboard assay relative to clindamycin alone; assay type: functional
[27] = tested on: Pseudomonas aeruginosa; test: Synergistic antibacterial activity against wild type Pseudomonas aeruginosa PAO1 assessed as potentiation of linezolid-induced antibacterial effect incubated for 18 hrs by checkerboard assay relative to linezolid alone; assay type: functional
[28] = tested on: Pseudomonas aeruginosa; test: Synergistic antibacterial activity against wild type Pseudomonas aeruginosa PAO1 assessed as potentiation of ceftazidime-induced antibacterial effect incubated for 18 hrs by checkerboard assay; assay type: functional, organism-based
[29] = tested on: Pseudomonas aeruginosa; test: Synergistic antibacterial activity against wild type Pseudomonas aeruginosa PAO1 assessed as potentiation of rifampicin-induced antibacterial effect incubated for 18 hrs by checkerboard assay relative to rifampicin alone; assay type: functional
[30] = tested on: Pseudomonas aeruginosa; test: Synergistic antibacterial activity against wild type Pseudomonas aeruginosa PAO1 assessed as potentiation of linezolid-induced antibacterial effect incubated for 18 hrs by checkerboard assay; assay type: functional, organism-based
[31] = tested on: Pseudomonas aeruginosa; test: Synergistic antibacterial activity against wild type Pseudomonas aeruginosa PAO1 assessed as potentiation of doxycycline-induced antibacterial effect incubated for 18 hrs by checkerboard assay relative to doxycycline alone; assay type: functional
[32] = tested on: HEK293; test: Cytotoxicity against human HEK293 cells at 50 uM incubated for 48 hrs by PrestoBlue dye based fluorescence assay; assay type: cell-based; conditions: hek293, 48 h
[33] = tested on: Pseudomonas aeruginosa; test: Synergistic antibacterial activity against wild type Pseudomonas aeruginosa PAO1 assessed as potentiation of meropenem-induced antibacterial effect incubated for 18 hrs by checkerboard assay; assay type: functional, organism-based
[34] = tested on: Pseudomonas aeruginosa; test: Synergistic antibacterial activity against wild type Pseudomonas aeruginosa PAO1 assessed as potentiation of clindamycin-induced antibacterial effect incubated for 18 hrs by checkerboard assay; assay type: functional, organism-based
[35] = Toxicity in Galleria mellonella larvae assessed as survivability at 200 mg/kg measured every 6 hrs for 72 hrs; assay type: organism-based; conditions: in vivo
[36] = tested on: Pseudomonas aeruginosa; test: Antibacterial activity against wild type Pseudomonas aeruginosa PAO1 assessed as fractional inhibitory concentration index incubated for 18 hrs in presence of colistin by checkerboard assay; assay type: functional
[37] = tested on: Pseudomonas aeruginosa; test: Synergistic antibacterial activity against wild type Pseudomonas aeruginosa PAO1 assessed as potentiation of moxifloxacin-induced antibacterial effect incubated for 18 hrs by checkerboard assay relative to moxifloxacin alone; assay type: functional
[38] = tested on: Pseudomonas aeruginosa; test: Synergistic antibacterial activity against wild type Pseudomonas aeruginosa PAO1 assessed as potentiation of colistin-induced antibacterial effect at <=7.1 uM incubated for 18 hrs by checkerboard assay; assay type: functional, organism-based
[39] = tested on: Pseudomonas aeruginosa; test: Synergistic antibacterial activity against wild type Pseudomonas aeruginosa PAO1 assessed as potentiation of rifampicin-induced antibacterial effect incubated for 18 hrs by checkerboard assay; assay type: functional, organism-based
[40] = tested on: Pseudomonas aeruginosa; test: Synergistic antibacterial activity against wild type Pseudomonas aeruginosa PAO1 assessed as potentiation of ceftazidime-induced antibacterial effect incubated for 18 hrs by checkerboard assay relative to ceftazidime alone; assay type: functional
[41] = tested on: Pseudomonas aeruginosa; test: Synergistic antibacterial activity against wild type Pseudomonas aeruginosa PAO1 assessed as potentiation of chloramphenicol-induced antibacterial effect incubated for 18 hrs by checkerboard assay relative to chloramphenicol alone; assay type: functional
[42] = tested on: Acinetobacter baumannii; test: Antibacterial activity against novobiocin and test compound-resistant Acinetobacter baumannii ATCC 17978 mutant generated from seven serial passages in presence of novobiocin by checkerboard assay; assay type: functional
[43] = tested on: Acinetobacter baumannii; test: Antibacterial activity against novobiocin-resistant Acinetobacter baumannii ATCC 17978 mutant generated from seven serial passages by checkerboard assay; assay type: functional
[44] = tested on: Acinetobacter baumannii; test: Antibacterial activity against wild type Acinetobacter baumannii ATCC 17978 assessed as resistant development at sub-MIC measured after 7 days of passaging by microbroth dilution method relative to control; assay type: functional
[45] = tested on: Acinetobacter baumannii; test: Antibacterial activity against colistin-resistant Acinetobacter baumannii ATCC 17978 mutant generated from seven serial passages by checkerboard assay; assay type: functional
[46] = tested on: Acinetobacter baumannii; test: Antibacterial activity against wild type Acinetobacter baumannii ATCC 17978 by checkerboard assay; assay type: functional
[47] = tested on: Pseudomonas aeruginosa; test: Induction of outer membrane permeabilization in Pseudomonas aeruginosa PAO1 assessed as increase in accumulation of NPN by measuring fluorescence intensity at 14 ug/ml measured immediately by NPN dye uptake assay; assay type: organism-based

NC[C@H]1O[C@H](O[C@H]2[C@H](OCCCCCCn3cc(CCCCO[C@@H]4[C@@H](O[C@H]5O[C@H](CO)[C@@H](O)[C@H](N)[C@H]5O)[C@H](N)C[C@H](N)[C@H]4O[C@H]4O[C@H](CN)[C@@H](O)C[C@H]4N)nn3)[C@@H](O[C@H]3O[C@H](CO)[C@@H](O)[C@H](N)[C@H]3O)[C@H](N)C[C@@H]2N)[C@H](N)C[C@@H]1O.O=C(O)C(F)(F)F.O=C(O)C(F)(F)F.O=C(O)C(F)(F)F.O=C(O)C(F)(F)F.O=C(O)C(F)(F)F.O=C(O)C(F)(F)F.O=C(O)C(F)(F)F.O=C(O)C(F)(F)F.O=C(O)C(F)(F)F.O=C(O)C(F)(F)F
Non-Toxic: Activity [8] | Activity [25] | Activity [32] | Activity [35]
active: Activity [2] Dose-dependent effect | Activity [3] Dose-dependent effect | Activity [4] Dose-dependent effect | Activity [5] Dose-dependent effect | Activity [6] Dose-dependent effect | Activity [7] Dose-dependent effect | Activity [10] Dose-dependent effect | Activity [12] Dose-dependent effect | Activity [13] Dose-dependent effect | Activity [17] Dose-dependent effect | Activity [18] Dose-dependent effect | Activity [28] Dose-dependent effect | Activity [30] Dose-dependent effect | Activity [33] Dose-dependent effect | Activity [34] Dose-dependent effect | Activity [39] Dose-dependent effect
>4: fractional inhibitory concentration index (FICI) [9] | fractional inhibitory concentration index (FICI) [36]
4 - 128: fold change (FC) [11] | fold change (FC) [14] | fold change (FC) [15] | fold change (FC) [16] | fold change (FC) [19] | fold change (FC) [20] | fold change (FC) [21] | fold change (FC) [22] | fold change (FC) [24] | fold change (FC) [26] | fold change (FC) [27] | fold change (FC) [29] | fold change (FC) [31] | fold change (FC) [37] | fold change (FC) [40] | fold change (FC) [41]
inactive: Activity [1] | Activity [23] | Activity [38]

NC[C@H]1O[C@H](O[C@H]2[C@H](O)[C@@H](O[C@H]3O[C@H](CO)[C@@H](O)[C@H](N)[C@H]3O)[C@H](N)C[C@@H]2N)[C@H](N)C[C@@H]1O [TOBRAMYCIN]
1 µg/mL: MIC [42] | MIC [43] | MIC [46]
inactive: Activity [47]
0.25 µg/mL: MIC [45]
512: fold change (FC) [44]
